In US20040157892A1, “Pesticidal fluoroethyl pyrazoles” (CROMPTON CO./Cie, priority 2003, published 2004):

Tests used:
Assay type in all cases: in vivo
[1] = test system: Tetranychus urticae Motiles; test: mite contact (MIC) bioassay; conditions: 300 ppm, contact on bean leaf, evaluated five days later
Procedure: (§1) For each compound tested, a stock solution of 3000 ppm was prepared by diluting 0.008 gram of each compound into 2.67 mL of acetone and further diluting with water to make the final concentrations used for the various screens, as follows:
In the mite contact (MIC) bioassay, approximately 20 motile mites confined on a cowpea leaf were sprayed with a 300 ppm concentration and evaluated five days later.
(§2) Since only a single replicate was used for the DBM and SCR screens, confirmation of mortality in an additional evaluation with three larvae at the 100 ppm rate was required to substantiate the initial observation of activity.

[2] = test system: Plutella xylostella Larva; test: diamondback moth (DBM) bioassay; conditions: 100 ppm, residual on diet, evaluated five days later, confirmed with three larvae
Procedure: as §1
In the diamondback moth (DBM) bioassay, a single larva was exposed to a diet with a surface that had been coated with a 100 ppm solution, and evaluated five days later.
as §2

Tetranychus urticae Eggs = test: mite ovicide (MIOV) bioassay; conditions: 100 ppm, contact on bean leaf, egg hatch evaluated nine days later
Procedure: as §1
In the mite ovicide (MIOV) bioassay, approximately 30 mite eggs on cowpea foliage were sprayed with a 100 ppm solution and egg hatch was evaluated nine days later.
as §2

Compound | Pesticidal Activity MIC (control) [1] | Pesticidal Activity DBM (control) [2] | Pesticidal Activity MIOV (control) (Tetranychus urticae Eggs)
FCCn1cc(-c2ccc(Cl)s2)cn1 [Compound 6, 1-(2-fluoroethyl)-4-(5-chloro-2-thienyl)pyrazole] | 100% | 100% | 100%
CCOC(=O)c1sc(-c2cnn(CCF)c2)nc1C(F)(F)F [Compound 7, Ethyl 2-[1-(2-fluoroethyl)-4-pyrazolyl]-4-trifluoromethyl-5-thiazolecarboxylate] | 100% |  | 100%
FCCn1cc(-c2cccc(Cl)n2)cn1 [Compound 8, 1-(2-fluoroethyl)-4-(6-chloro-2-pyridyl)pyrazole] | 100% |  | 100%
FCCn1cc(C#Cc2ccc(Cl)cc2)cn1 [Compound 9, 1-(2-fluoroethyl)-4-[(4-chlorophenyl)ethynyl]pyrazole] | 100% |  | 100%
FCCn1cc(C#Cc2cccnc2)cn1 [Compound 10] | 100% |  | 100%
Isopropyl 1-(2-fluoroethyl)-3(or 5)-nitro-1H-pyrazole-5 (or 3)-carboxylate [Compound 1] | 100% | 100% | 
